Measured values published in paper PMC10709440, “High-throughput ligand profile characterization in novel cell lines expressing seven heterologous insect olfactory receptors for the detection of volatile plant biomarkers” (Scientific Reports, 2023).
Read-outs that look alike come from different tables or passages of the source.

What was measured:
Drosophila OR10a = molecular target: T1, Drosophila OR10a (Drosophila melanogaster, UniProt Q9VYZ1); assay: Calcium ion fluorescence (GCaMP6) assay, OR10a stable HEK293 cell line; format: cell-based; details: for OR10a response (VUAA1-normalized) at 1 μM / OR10a response (VUAA1-normalized) at 10 μM / OR10a response (VUAA1-normalized) at 100 μM: OR10a cell line
T1 construct: expressed in transfected cells
T1 sequence (Q9VYZ1 1-406): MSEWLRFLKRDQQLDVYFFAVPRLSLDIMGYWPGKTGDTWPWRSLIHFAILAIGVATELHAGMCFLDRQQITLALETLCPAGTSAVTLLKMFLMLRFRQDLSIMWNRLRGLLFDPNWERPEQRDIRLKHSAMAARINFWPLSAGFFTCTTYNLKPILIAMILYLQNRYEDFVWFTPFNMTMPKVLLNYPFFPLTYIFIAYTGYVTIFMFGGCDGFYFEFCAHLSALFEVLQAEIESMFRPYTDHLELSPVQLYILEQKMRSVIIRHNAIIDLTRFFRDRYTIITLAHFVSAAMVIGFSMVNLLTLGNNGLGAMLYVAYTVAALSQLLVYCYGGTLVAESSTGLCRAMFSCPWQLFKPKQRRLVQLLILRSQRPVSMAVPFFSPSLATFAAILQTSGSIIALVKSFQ
T1 sequence (Q9VNB5 1-486 partner): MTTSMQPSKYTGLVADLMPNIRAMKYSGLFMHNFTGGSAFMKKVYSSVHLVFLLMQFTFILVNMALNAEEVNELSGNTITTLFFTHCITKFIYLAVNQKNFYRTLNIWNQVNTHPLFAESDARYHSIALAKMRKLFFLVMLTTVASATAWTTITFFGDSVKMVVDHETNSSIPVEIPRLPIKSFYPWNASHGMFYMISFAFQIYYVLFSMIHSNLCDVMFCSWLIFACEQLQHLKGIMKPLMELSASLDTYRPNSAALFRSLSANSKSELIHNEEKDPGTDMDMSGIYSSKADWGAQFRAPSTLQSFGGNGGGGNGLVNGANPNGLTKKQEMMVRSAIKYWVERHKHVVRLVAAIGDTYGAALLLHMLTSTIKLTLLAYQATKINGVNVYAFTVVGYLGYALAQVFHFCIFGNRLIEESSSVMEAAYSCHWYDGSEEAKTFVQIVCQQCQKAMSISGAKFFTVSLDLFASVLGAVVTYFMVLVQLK
In short: (§1)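 HEK293 lines stably expressing each Drosophila OR with GCaMP6, doxycycline-induced (1 μg/mL) 48 or 72 h. Fluorescence recorded 5 s baseline then 30 s after VOC injection at pH 7.3; ΔF=(FMAX−F0)/F0, normalized to 50 µM VUAA1 response per line, triplicate wells averaged; concentration series 0.01–100 μM.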

Drosophila OR85b = molecular target: T2, Drosophila OR85b (Drosophila melanogaster, UniProt Q9VHQ7); assay: Calcium ion fluorescence (GCaMP6) assay, OR85b stable HEK293 cell line; format: cell-based; details: for Average response / OR85b response (VUAA1-normalized) at 1 μM / OR85b response (VUAA1-normalized) at 10 μM / OR85b response (VUAA1-normalized) at 100 μM: OR85b cell line; for Average response: VUAA1-normalized response, mean of biological replicates; for activation at 1 µM / activation at 10 µM / activation at 100 µM: HEK293, read-out: OR85b response (VUAA1-normalized response)
T2 construct: expressed in transfected cells
T2 sequence (Q9VHQ7 1-390): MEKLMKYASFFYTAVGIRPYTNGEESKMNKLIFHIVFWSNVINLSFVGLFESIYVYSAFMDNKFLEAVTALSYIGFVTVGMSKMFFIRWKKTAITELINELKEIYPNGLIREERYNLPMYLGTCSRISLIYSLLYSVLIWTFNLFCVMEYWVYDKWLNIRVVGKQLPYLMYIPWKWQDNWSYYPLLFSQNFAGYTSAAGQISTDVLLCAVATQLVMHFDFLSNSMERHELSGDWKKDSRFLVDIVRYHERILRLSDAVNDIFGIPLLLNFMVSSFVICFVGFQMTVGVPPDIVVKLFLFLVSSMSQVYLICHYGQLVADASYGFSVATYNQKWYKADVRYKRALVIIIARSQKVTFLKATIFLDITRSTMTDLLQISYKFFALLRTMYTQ
T2 sequence (Q9VNB5 1-486 partner): T1 sequence (Q9VNB5 1-486 partner)
In short: as §1

[1] = 1 μM VOC, 50 μM VUAA1 = 1, responses not exceeding 0.05 considered 0
[2] = 10 μM VOC, 50 μM VUAA1 = 1, responses not exceeding 0.05 considered 0
[3] = 100 μM VOC, 50 μM VUAA1 = 1, responses not exceeding 0.05 considered 0
[4] = concentration 10, normalized fluorescence change, values below 0.05 threshold given as 0
[5] = concentration 1, normalized fluorescence change, values below 0.05 threshold given as 0
[6] = concentration 100, normalized fluorescence change, values below 0.05 threshold given as 0
[7] = HEK293, read-out: OR10a response (VUAA1-normalized response), VOC concentration 1 μM
[8] = HEK293, read-out: OR10a response (VUAA1-normalized response), VOC concentration 10 μM
[9] = HEK293, read-out: OR10a response (VUAA1-normalized response), VOC concentration 100 μM
[10] = HEK293, 1 μM VOC, 50 μM VUAA1 = 1, responses not exceeding 0.05 considered 0, read-out: OR10a Average response (VUAA1-normalized)
[11] = HEK293, 10 μM VOC, 50 μM VUAA1 = 1, responses not exceeding 0.05 considered 0, read-out: OR10a Average response (VUAA1-normalized)
[12] = HEK293, 100 μM VOC, 50 μM VUAA1 = 1, responses not exceeding 0.05 considered 0, read-out: OR10a Average response (VUAA1-normalized)
[13] = ligand concentration 1 (unit not given), threshold 0.05, below shown as 0
[14] = ligand concentration 10 (unit not given), threshold 0.05, below shown as 0
[15] = ligand concentration 100 (unit not given), threshold 0.05, below shown as 0

Row | Structure (SMILES) | OR10a Average response (VUAA1-normalized) (Drosophila OR10a; [1]) | OR10a Average response (VUAA1-normalized) (Drosophila OR10a; [2]) | OR10a Average response (VUAA1-normalized) (Drosophila OR10a; [3]) | OR10a response (VUAA1-normalized response) (Drosophila OR10a; VOC concentration 1 μM) | OR10a response (VUAA1-normalized response) (Drosophila OR10a; VOC concentration 10 μM) | OR10a response (VUAA1-normalized response) (Drosophila OR10a; VOC concentration 100 μM) | Average response (Drosophila OR85b; cc. 1 µM) | Average response (Drosophila OR85b; cc. 10 µM) | Average response (Drosophila OR85b; cc. 100 µM) | OR85b response (VUAA1-normalized response) (Drosophila OR85b; VOC concentration 1 μM) | OR85b response (VUAA1-normalized response) (Drosophila OR85b; VOC concentration 10 μM) | OR85b response (VUAA1-normalized response) (Drosophila OR85b; VOC concentration 100 μM) | DF norm AVERAGE OR85b (Drosophila OR85b; [5]) | DF norm AVERAGE OR85b (Drosophila OR85b; [4]) | DF norm AVERAGE OR85b (Drosophila OR85b; [6]) | activation at 1 µM (Drosophila OR10a; [7]) | activation at 10 µM (Drosophila OR10a; [8]) | activation at 100 µM (Drosophila OR10a; [9]) | activation at 1 µM (Drosophila OR85b) | activation at 10 µM (Drosophila OR85b) | other results
1 | C=C1[C@H]2CC[C@@H]3[C@H]2C(C)(C)CCC[C@]13C [(+)-longifolene] | 0.08 | 0.0537 | 0.028 | 0.08 | 0.0537 | 0.00 | 0.08 | 0.11 | 0.05 | 0.08 | 0.11 | 0.00 | 0.0834 | 0.1092 | 0 |  |  |  |  |  | DF norm AVERAGE OR10a (Drosophila OR10a; [4]): 0.05372
2 | C=C1CC[C@H]2O[C@]2(C)CC[C@@H]2[C@@H]1CC2(C)C [(-)-caryophyllene oxide] |  |  |  |  |  |  | 0.00 | 0.00 | 0.036 |  |  |  | 0 | 0 | 0 | 0% | 0% | 0% | 0% | 0% | activation at 1 µM (Drosophila OR10a; HEK293, read-out: OR10a Average response (VUAA1-normalized), 1 μM VOC, 50 μM VUAA1 = 1, responses not exceeding 0.05 considered 0): 0%; activation at 10 µM (Drosophila OR10a; HEK293, read-out: OR10a Average response (VUAA1-normalized), 10 μM VOC, 50 μM VUAA1 = 1, responses not exceeding 0.05 considered 0): 0%; activation at 100 µM (Drosophila OR10a; HEK293, read-out: OR10a Average response (VUAA1-normalized), 100 μM VOC, 50 μM VUAA1 = 1, responses not exceeding 0.05 considered 0): 0%; DF norm AVERAGE OR10a (Drosophila OR10a; [5]): 0; DF norm AVERAGE OR10a (Drosophila OR10a; [4]): 0; DF norm AVERAGE OR10a (Drosophila OR10a; [6]): 0; activation at 100 µM (Drosophila OR85b): 0%
3 | C=C1CC/C=C(\C)CC[C@@H]2[C@@H]1CC2(C)C [(-)-trans-caryophyllene] |  |  |  |  |  |  | 0.00 | 0.00 | 0.0238 |  |  |  | 0 | 0 | 0 | 14% | 20% | 6.61% | 0% | 0% | activation at 1 µM (Drosophila OR10a; [10]): 14%; activation at 10 µM (Drosophila OR10a; [11]): 20%; activation at 100 µM (Drosophila OR10a; [12]): 6.61%; activation at 100 µM (Drosophila OR85b): 0%
4 | C=C(C)[C@H]1CC=C(C)CC1 [(R)-(+)-limonene] | 0.00 | 0.12 | 0.0152 | 0.00 | 0.12 | 0.00 | 0.0426 | 0.03 | 0.00 | 0.00 | 0.00 | 0.00 | 0 | 0 | 0 |  |  |  |  |  | 
5 | CC1=CCC[C@@]2(C)[C@@H]3CC[C@]12CC3(C)C [(−)-α-neoclovene] | 0.00 | 0.13 | 0.12 | 0.00 | 0.13 | 0.12 | 0.00 | 0.00 | 0.0165 | 0.00 | 0.00 | 0.00 | 0 | 0 | 0 |  |  |  |  |  | 
6 | CC/C=C\CCO [E-3-hexenol] |  |  |  | 0.00 | 0.00 | 0.074 |  |  |  | 0.00 | 0.00 | 0.00 |  |  |  |  |  |  |  |  | 
7 | CC/C=C\CCO [Z3-hexenol] | 0.17 | 0.19 | 0.10 |  |  |  | 0.0533 | 0.0426 | 0.00 |  |  |  |  |  |  |  |  |  |  |  | DF norm AVERAGE OR10a (Drosophila OR10a; ligand concentration 1 (unit not given), […]): 0.1736; DF norm AVERAGE OR10a (Drosophila OR10a; ligand concentration 10 (unit not given), […]): 0.1946; DF norm AVERAGE OR10a (Drosophila OR10a; ligand concentration 100 (unit not given), […]): 0.1046; DF norm AVERAGE OR85b (Drosophila OR85b; ligand concentration 1 (unit not given), 0.05 threshold, values below shown as 0): 0.05333; DF norm AVERAGE OR85b (Drosophila OR85b; ligand concentration 10 (unit not given), 0.05 threshold, values below shown as 0): 0; DF norm AVERAGE OR85b (Drosophila OR85b; ligand concentration 100 (unit not given), 0.05 threshold, values below shown as 0): 0
8 | CC/C=C\CCO [Z-3-hexenol] |  |  |  |  |  |  |  |  |  |  |  |  |  |  |  |  |  |  |  |  | OR10a response (VUAA1-normalized) at 1 μM (Drosophila OR10a; VOC concentration 1 μM): 0.17; OR10a response (VUAA1-normalized) at 10 μM (Drosophila OR10a; VOC concentration 10 μM): 0.19; OR10a response (VUAA1-normalized) at 100 μM (Drosophila OR10a; VOC concentration 100 μM): 0.10; OR85b response (VUAA1-normalized) at 1 μM (Drosophila OR85b; VOC concentration 1 μM): 0.0533; OR85b response (VUAA1-normalized) at 10 μM (Drosophila OR85b; VOC concentration 10 μM): 0.00; OR85b response (VUAA1-normalized) at 100 μM (Drosophila OR85b; VOC concentration 100 μM): 0.00
9 | CC/C=C\CCOC(C)=O [Z-3-hexenyl acetate] |  |  |  |  |  |  |  |  |  |  |  |  |  |  |  |  |  |  |  |  | OR10a response (VUAA1-normalized) at 1 μM (Drosophila OR10a; VOC concentration 1 μM): 0.14; OR10a response (VUAA1-normalized) at 10 μM (Drosophila OR10a; VOC concentration 10 μM): 0.00; OR10a response (VUAA1-normalized) at 100 μM (Drosophila OR10a; VOC concentration 100 μM): 0.00; OR85b response (VUAA1-normalized) at 1 μM (Drosophila OR85b; VOC concentration 1 μM): 0.15; OR85b response (VUAA1-normalized) at 10 μM (Drosophila OR85b; VOC concentration 10 μM): 0.00; OR85b response (VUAA1-normalized) at 100 μM (Drosophila OR85b; VOC concentration 100 μM): 0.00
10 | CC(=O)c1ccccc1 [acetophenone] |  |  |  |  |  |  | 0.00 | 0.00 | 0.00 |  |  |  |  |  |  | 0% | 0% | 24% | 0% | 0% | activation at 1 µM (Drosophila OR10a; [10]): 4%; activation at 10 µM (Drosophila OR10a; [11]): 0%; activation at 100 µM (Drosophila OR10a; [12]): 24%; DF norm AVERAGE OR10a (Drosophila OR10a; [13]): 0; DF norm AVERAGE OR10a (Drosophila OR10a; [14]): 0; DF norm AVERAGE OR10a (Drosophila OR10a; [15]): 0.2367; activation at 100 µM (Drosophila OR85b): 0%; DF norm AVERAGE OR85b (Drosophila OR85b; [13]): 0; DF norm AVERAGE OR85b (Drosophila OR85b; [14]): 0; DF norm AVERAGE OR85b (Drosophila OR85b; [15]): 0
